Data from patent US20110040086A1, “Novel Beta-Lactam Antibiotics, Methods for Their Production, and Their Use” (DRITTE PATENTPORTFOLIO BETEILIGUNGSGESELLSCHAFT MB, priority 2007, published 2011).

What was measured:
[1] = test system: Enterococcus faecalis 769; assay: agar diffusion test (Test System II, multi-resistant germs); assay type: cell-based; parameters: key: r = resistant (no detectable zone of inhibition)
Procedure: (§1) The test substances are deposited in stepped quantities (10 μg, 50 μg, 100 μg) onto active ingredient carriers (sensi-discs). For this purpose, the test substances are dissolved in methanol or A. dest. according to their solubility. Each inoculated plate is fitted with 3 test sheets.
(§2) Test System II (Effect Against Multi-Resistant Germs)
(§3) For this purpose, bacteria is cultivated on Müller-Hinton-Agar II plates.
(§4) With 1-1.5 ml physiological saline solution, a bacteria suspension of McFarland 0.5 (corresponds to a bacteria density of 150×10^6 germs) is produced. Then, with a sterile glass rod, a small drop of bacteria suspension is placed on the Müller-Hinton-Agar plate and coated in three layers (vertical, horizontal, and transverse). Thereafter, the sensi-discs with the novel semi-synthetic test substances are placed on top. The fitted plates are incubated for 18-20 hours at 37° C. After incubation, the diameters of the zones of inhibition are read as a measure for the antimicrobial activity of the novel semi-synthetic test substances.

[2] = test system: Staphylococcus aureus 315; assay: as above; assay type: cell-based; parameters: key: r = resistant (no detectable zone of inhibition)
Procedure: as §1, §2, §3, §4

S. aureus ATCC 6538 = assay: as above; assay type: cell-based, Staphylococcus aureus
Procedure: as §1, §2, §3, §4

S. aureus 38418 = assay: as above; assay type: cell-based, Staphylococcus aureus
Procedure: as §1, §2, §3, §4

S. epidermidis 847 = assay: as above; assay type: cell-based, Staphylococcus epidermidis; parameters: key: r = resistant (no detectable zone of inhibition)
Procedure: as §1, §2, §3, §4

[3] = test system: Staphylococcus aureus ATCC 6538; assay: mouse infected with Staphylococcus aureus infection model (survival); assay type: in vivo, BALB/c mice; settings: 2 × 1.0 mg (50 mg/kg) i.p.
Procedure: Method for Effectiveness In Vivo with the Mouse Infected with Staphylococcus aureus Model
On Day 0, at least 3 BALB/c mice per test substance (Table 8) or controls are pretreated with cyclophosphamide (250 mg/kg) in 250 μl PBS inta peritoneal (i.p.).
On Day 2, the animals again received 100 mg/kg i.p.
On Day 2, a colony of the test germ is transferred from a growing agar plate (Müller-Hinton-Agar, Beckton Dickinson) into a flask with 10 ml CASO broth (CASO-B., Soyabean peptone-Casein peptone broth, SIFIN, 30 g/l) and is cultivated overnight at 37° C. and a shaking frequency of 250 rpm.
On Day 3, the pre-culture (Vk) is diluted 1:50 with CASO-B and further cultivated ca. 2 hours until an extinction in the medium of 0.6 at a wavelength of 550 nm is reached. Then, it is grown 1× with PBS at room temperature and set again to an extinction of 0.6.
At least 3 animals for a test substance or controls are infected with 10 μl/g body weight grown germs of a bacteria suspension with the extinction 0.6 (ca. 10^10-10^12 CFU, Colony forming units) i.p.
After 30 minutes, antibiotic solution is injected into the mice in a volume of 200 μl PBS with 3% DMSO i.p. 6 hours later, the second antibiotic injection is performed at the same concentration. […]

S. epidermidis 125 = assay: agar diffusion test (Test System II, multi-resistant germs); assay type: cell-based, Staphylococcus epidermidis
Procedure: as §1, §2, §3, §4

[4] = test system: S. aureus North Germany strain; assay: as above; assay type: cell-based, Staphylococcus aureus; parameters: key: r = resistant (no detectable zone of inhibition)
Procedure: as §1, §2, §3, §4

S. aureus 36881 = assay: as above; assay type: cell-based, Staphylococcus aureus; parameters: key: r = resistant (no detectable zone of inhibition)
Procedure: as §1, §2, §3, §4

S. aureus 520 = assay: as above; assay type: cell-based, Staphylococcus aureus; parameters: key: r = resistant (no detectable zone of inhibition)
Procedure: as §1, §2, §3, §4

Substance: 3-chlorine-7-[2-(2-carbamoyl-3,6-dioxocyclohexa-1,4-dienylamino)-2-phenyl-acetylamino]-8-oxo-5-aza-bicyclo[4.2.0]oct-3-ene-4-carboxylic acid [1n]
- Diameter of zone of inhibition ([1]; Quantity n 0.019): r
- Diameter of zone of inhibition ([1]; Quantity n 0.096): r
- Diameter of zone of inhibition ([1]; Quantity n 0.19): r
- Diameter of zone of inhibition ([2]; Quantity n 0.019): r
- Diameter of zone of inhibition ([2]; Quantity n 0.096): r
- Diameter of zone of inhibition ([2]; Quantity n 0.19): 12 mm
- Diameter of zone of inhibition (S. aureus ATCC 6538; Quantity n 0.019): 22 mm
- Diameter of zone of inhibition (S. aureus ATCC 6538; Quantity n 0.096): 28 mm
- Diameter of zone of inhibition (S. aureus ATCC 6538; Quantity n 0.19): 32 mm
- Diameter of zone of inhibition (S. aureus 38418; Quantity n [mol] 0.019): 14 mm
- Diameter of zone of inhibition (S. aureus 38418; Quantity n [mol] 0.096): 26 mm
- Diameter of zone of inhibition (S. aureus 38418; Quantity n [mol] 0.19): 30 mm
- Diameter of zone of inhibition (S. epidermidis 847; Quantity n [mol] 0.019): r
- Diameter of zone of inhibition (S. epidermidis 847; Quantity n [mol] 0.096): 16 mm
- Diameter of zone of inhibition (S. epidermidis 847; Quantity n [mol] 0.19): 20 mm
- Survival/tested mice n/n [3]: 3/3
- Diameter of zone of inhibition (S. epidermidis 125; Quantity n 0.019): 14 mm
- Diameter of zone of inhibition (S. epidermidis 125; Quantity n 0.096): 22 mm
- Diameter of zone of inhibition (S. epidermidis 125; Quantity n 0.19): 26 mm
- Diameter of zone of inhibition ([4]; Quantity n 0.019): r
- Diameter of zone of inhibition ([4]; Quantity n 0.096): r
- Diameter of zone of inhibition ([4]; Quantity n 0.19): 14 mm
- Diameter of zone of inhibition (S. aureus 36881; Quantity n 0.019): r
- Diameter of zone of inhibition (S. aureus 36881; Quantity n 0.096): r
- Diameter of zone of inhibition (S. aureus 36881; Quantity n 0.19): 8 mm
- Diameter of zone of inhibition (S. aureus 520; Quantity n [mol] 0.019): r
- Diameter of zone of inhibition (S. aureus 520; Quantity n [mol] 0.096): r
- Diameter of zone of inhibition (S. aureus 520; Quantity n [mol] 0.19): 8 mm
